Test results reported in paper PMC11249646, “Small-Molecule Disruptors of the Interaction between Calcium- and Integrin-Binding Protein 1 and Integrin αIIbβ3 as Novel Antiplatelet Agents” (ACS Pharmacology & Translational Science, 2024).
Where two headings read alike, the source gives them in different places.

Legend:
[1] = molecular target: T1, CIB1 and αIIb interaction (CIB1-GST : F-αIIb peptide) (Homo sapiens, UniProt Q99828); test: FP assay, 1536-well qHTS format (primary and confirmatory screen); type: binding; conditions: for Curve Class (confirmatory screen): qHTS curve class
T1 construct: made in house; host or cells: BL-21 plus RIL cells (E. coli)
T1 sequence (Q99828 1-191): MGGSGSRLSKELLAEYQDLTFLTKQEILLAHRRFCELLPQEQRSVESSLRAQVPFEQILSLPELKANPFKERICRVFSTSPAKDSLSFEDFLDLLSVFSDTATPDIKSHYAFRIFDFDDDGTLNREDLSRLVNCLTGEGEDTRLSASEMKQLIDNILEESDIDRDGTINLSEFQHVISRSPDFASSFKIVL

[2] = molecular target: T2, GST-CIB1 : F-scrambled peptide (Homo sapiens, UniProt Q99828); test: FP scrambled-peptide counter screen, 1536-well format; type: binding; conditions: for Curve Class (counterscreen): qHTS curve class; for IC50: read-out: IC50 [μM] (counterscreen)
T2 construct: made in house; host or cells: BL-21 plus RIL cells (E. coli)
T2 sequence (Q99828 1-191): T1 sequence (Q99828 1-191)

[3] = Table S3, confirmatory screen, YES/NO call
[4] = Table S3, confirmatory screen, a negative sign marks inhibitory curves
[5] = Table S3, confirmatory screen, negative = inhibition
[6] = Table S3, confirmatory screen, read-out: IC50 [μM] (confirmatory screen)
[7] = qHTS FP screen hits, Table S2, negative = inhibition
[8] = qHTS FP screen hits, Table S2, one class per curve where COUNT > 1, negative sign = inhibitory curve
[9] = qHTS FP screen hits, Table S2, read-out: IC50
[10] = Table S3, counterscreen, a negative sign marks inhibitory curves
[11] = Table S3, counterscreen, negative = inhibition
[12] = confirmatory screen, negative sign = inhibitory curve
[13] = confirmatory screen, read-out: IC50 [μM] (confirmatory screen)
[14] = counterscreen, negative sign = inhibitory curve
[15] = qHTS primary screen hits, Table S2, negative = inhibition
[16] = qHTS primary screen hits, Table S2, negative sign = inhibitory curve, several classes where COUNT > 1
[17] = qHTS primary screen hits, Table S2, read-out: IC50

Row | Compound | Confirm? (confirmatory screen) [1, 3] | Curve Class (confirmatory screen) [1, 4] | Efficacy (%) (confirmatory screen) [1, 5] | IC50 [1, 6] [µM] | Efficacy (%) [1, 7] [%] | Curve Class [1, 8] | IC50 [1, 9] [µM] | Curve Class (counterscreen) [2, 10] | Efficacy (%) (counterscreen) [2, 11] | IC50 ([2]; Table S3, counterscreen) [µM] | Efficacy (%) (confirmatory screen) ([1]; confirmatory screen) | Confirm? (confirmatory screen) ([1]; confirmatory screen, YES/NO) | Curve Class (confirmatory screen) [1, 12] | IC50 [1, 13] [µM] | Efficacy (%) (counterscreen) ([2]; counterscreen) | Curve Class (counterscreen) [2, 14] | IC50 ([2]; counterscreen) [µM] | further results
1 | OC[C@H]1O[C@@H](Oc2ccc(O)c3cccc(O)c23)[C@H](O)[C@@H](O)[C@@H]1O [NCGC00385147-01] | YES | -1.1 | -85 | 11.2 | -54 | -2.2 | 31.6 | -1.1 | -86 | 15.8 |  |  |  |  |  |  |  | 
2 | Cc1c(Cc2ccc3ccccc3n2)c2cc(F)ccc2n1CC(=O)O [NCGC00386286-04] | YES | -2.1 | -124 | 50.1 | -116 | -2.1 | 44.7 | -2.1 | -123 | 44.7 |  |  |  |  |  |  |  | 
3 | CCN(CC)CCN(Cc1ccc(-c2ccc(C(F)(F)F)cc2)cc1)C(=O)Cn1c(SCc2ccc(F)cc2)nc(=O)c2c1CCC2 [NCGC00386337-05] |  |  |  |  | -54 | -2.2 | 56.2 |  |  |  | -65 | YES | -1.2 | 35.5 | -46 | -2.2 | 31.6 | 
4 | COc1ccc2[nH]c([S+]([O-])Cc3ncc(C)c(OC)c3C)nc2n1 (stereo not drawn) [NCGC00386399-04] | YES | -1.2 | -44 | 25.1 |  |  |  | -2.2 | -72 | 44.7 |  |  |  |  |  |  |  | 
5 | O=C(O)CSc1cc(NS(=O)(=O)c2ccc(Br)cc2)c2ccccc2c1O [NCGC00386409-01] |  |  |  |  | -87 | -2.2 | 44.7 |  |  |  | -92 | YES | -1.1 | 12.6 | -60 | -1.2 | 5 | 
6 | N#Cc1ccc(Nc2nc(-c3ccc(O)cc3O)cs2)cc1C(F)(F)F [NCGC00386816-01] |  |  |  |  | -71 | -2.2 | 35.5 |  |  |  | -72 | YES | -2.2 | 50.1 | -65 | -2.2 | 28.2 | 
7 | CCC(C)Cn1c(O)cc2nn(-c3nc4ccccc4s3)c(=O)c-2c1C.O=C(O)C(F)(F)F (stereo not drawn) [NCGC00386995-01] | YES | -1.4 | -40 | 35.5 |  |  |  | -1.2 | -51 | 11.2 |  |  |  |  |  |  |  | 
8 | O=c1nc(-c2ccccn2)sc2ccccc12 [NCGC00387147-01] |  |  |  |  | -72 | -1.2 | 28.2 |  |  |  | -28 | YES | -2.4 | 44.7 | 0 | 4 |  | Confirm? (counterscreen) ([2]; counterscreen, YES/NO): YES
9 | CC[C@@H](c1ccc(F)c(F)c1)n1c(C(=O)OC)c(-c2ccno2)[nH]c1=S [NCGC00387465-01] |  | 4 | -22 |  | -79 | -2.2 | 79.4 | 4 | 0 |  |  |  |  |  |  |  |  | 
10 | CNc1ccc([N+](=O)[O-])c(Nc2ccc3[nH]ncc3c2)n1 [NCGC00387499-01] |  |  |  |  | -48 | -1.2 | 3.5 |  |  |  | -53 | YES | -1.2 | 2.8 | -36 | -1.2 | 4 | 
11 | C=C1[C@@H](C)[C@H]2[C@H](Cc3ccccc3)NC(=O)[C@]23OC(=O)/C=C/C(=O)CCC[C@@H](C)C/C=C/[C@H]3[C@@H]1O [NCGC00388356-01] |  |  |  |  | -73 | -1.2 | 20 |  |  |  | -94 | YES | -1.1 | 10 | -57 | -1.2 | 5.6 | 
12 | O=C1NC(c2ccc(N3CCOCC3)cc2)(c2ccsc2)CC(O)=C1Sc1ccccc1Cl (stereo not drawn) [NCGC00388532-05] |  |  |  |  |  |  |  |  |  |  | -53 | YES | -2.4 | 44.7 | -48 | -2.2 | 31.6 | Efficacy (%) [1, 15]: -27%; Curve Class [1, 16]: -1.4; IC50 [1, 17]: 0.9 µM
13 | Oc1ccc2c(-c3c(-c4ccccn4)nn4c3CCC4)ccnc2c1 [NCGC00408881-01] |  |  |  |  | -36 | -1.2 | 28.2 |  |  |  | -42 | YES | -2.2 | 39.8 | -32 | -2.2 | 50.1 | 
14 | O=C(N/N=C1\C(=O)N(CCc2ccccc2)c2ccccc21)c1cccnc1 [NCGC00420788-01] | YES | -2.2 | -58 | 39.8 |  |  |  | -2.2 | -65 | 44.7 |  |  |  |  |  |  |  | Efficacy (%) [1, 15]: -28%; Curve Class [1, 16]: -1.4; IC50 [1, 17]: 22.4 µM
15 | O=C1C[C@@](c2ccc(N3CCOCC3)cc2)(c2ccsc2)NC(=O)C1Sc1ccccc1Cl (stereo partly drawn) [NCGC00420796-01] |  |  |  |  |  |  |  |  |  |  | -47 | YES | -2.2 | 20 | -34 | -1.4 | 6.3 | 
16 | Nc1nc2c(s1)C(c1ccccc1)CC(=O)N2 (stereo not drawn) [NCGC00422009-03] |  | 4 | -35 |  |  |  |  | -2.4 | -45 | 39.8 |  |  |  |  |  |  |  | Efficacy (%) [1, 15]: -83%; Curve Class [1, 16]: -2.2; IC50 [1, 17]: 79.4 µM; Confirm? (counterscreen) ([2]; Table S3, counterscreen, YES/NO call): YES
